Laboratory results as given in ChEMBL document CHEMBL3400121, “Design and synthesis of novel 1,2,3-triazole-pyrimidine-urea hybrids as potential anticancer agents” (Bioorg Med Chem Lett, 2015).

Key:
[1] = Anticancer activity against human EC109 cells assessed as inhibition of proliferation after 72 hrs by MTT assay; type: functional, cell-based; conditions: ECa-109, 72 h
MCF7 = assay: Anticancer activity against human MCF7 cells assessed as inhibition of proliferation after 72 hrs by MTT assay; type: functional, cell-based; conditions: MCF7, 72 h
MGC-803 = assay: Anticancer activity against human MGC803 cells assessed as inhibition of proliferation after 72 hrs by MTT assay; type: functional, cell-based; conditions: MGC-803, 72 h
[2] = Anticancer activity against mouse B16F10 cells assessed as inhibition of proliferation after 72 hrs by MTT assay; type: functional, cell-based; conditions: B16-F10, 72 h
[3] = Cytotoxicity against human GES-1 cells assessed as inhibition of proliferation after 72 hrs by MTT assay; type: cell-based; conditions: GES1, 72 h

COc1cc(-c2nc(SCc3cn(CC(=O)NC(=O)Nc4ccccn4)nn3)nc(Nc3ccc(Cl)cc3)c2C#N)cc(OC)c1OC
IC50 [1]: > 64 µM
IC50 (MCF7): 45.1 µM
IC50 (MGC-803): 17.5 µM
IC50 [2]: 1.11 µM

CC(C)c1ccc(Nc2nc(SCc3cn(CC(=O)NC(=O)Nc4ccccn4)nn3)nc(-c3ccc(Cl)cc3)c2C#N)cc1
IC50 [1]: > 64 µM
IC50 (MCF7): 39.9 µM
IC50 (MGC-803): 16.9 µM
IC50 [2]: 1.59 µM

CC(C)c1ccc(-c2nc(SCc3cn(CC(=O)NC(=O)Nc4ccccn4)nn3)nc(Nc3cccc(Cl)c3)c2C#N)cc1
IC50 [1]: 13.3 µM
IC50 (MCF7): 18 µM
IC50 (MGC-803): > 64 µM
IC50 [2]: 1.13 µM

CC(C)c1ccc(-c2nc(SCc3cn(CC(=O)NC(=O)Nc4ccccn4)nn3)nc(Nc3ccc(Cl)cc3)c2C#N)cc1
IC50 [1]: 11.2 µM
IC50 (MCF7): > 64 µM
IC50 (MGC-803): > 64 µM
IC50 [2]: 0.86 µM

CC(C)c1ccc(-c2nc(SCc3cn(CC(=O)NC(=O)Nc4ccccn4)nn3)nc(Nc3ccc(F)cc3)c2C#N)cc1
IC50 [1]: > 64 µM
IC50 (MCF7): > 64 µM
IC50 (MGC-803): 17.5 µM
IC50 [2]: 7.25 µM

COc1ccc(Nc2nc(SCc3cn(CC(=O)NC(=O)Nc4ccccn4)nn3)nc(-c3ccc(C(C)C)cc3)c2C#N)cc1
IC50 [1]: 5.42 µM
IC50 (MCF7): > 64 µM
IC50 (MGC-803): > 64 µM
IC50 [2]: 0.36 µM

COc1ccc(Nc2nc(SCc3cn(CC(=O)NC(=O)Nc4ccccn4)nn3)nc(-c3ccc(C)cc3)c2C#N)cc1
IC50 [1]: 5.87 µM
IC50 (MCF7): 23.4 µM
IC50 (MGC-803): 1.7 µM
IC50 [2]: 8.75 µM
IC50 [3]: 35.7 µM

COc1cc(-c2nc(SCc3cn(CC(=O)NC(=O)Nc4ccccn4)nn3)nc(Nc3ccc(C(C)C)cc3)c2C#N)cc(OC)c1OC
IC50 [1]: > 64 µM
IC50 (MCF7): 30.9 µM
IC50 (MGC-803): 35.5 µM
IC50 [2]: 1.21 µM

N#Cc1c(Nc2cccc(C(F)(F)F)c2)nc(SCc2cn(CC(=O)NC(=O)Nc3ccccn3)nn2)nc1-c1ccc(Br)cc1
IC50 [1]: 2.96 µM
IC50 (MCF7): 3.11 µM
IC50 (MGC-803): 3.6 µM
IC50 [2]: 4.55 µM
IC50 [3]: 38.7 µM

Cc1ccc(-c2nc(SCc3cn(CC(=O)NC(=O)Nc4ccccn4)nn3)nc(Nc3cccc(Cl)c3)c2C#N)cc1
IC50 [1]: 25.6 µM
IC50 (MCF7): 14.9 µM
IC50 (MGC-803): 7.89 µM
IC50 [2]: 7.58 µM

COc1ccccc1Nc1nc(SCc2cn(CC(=O)NC(=O)Nc3ccccn3)nn2)nc(-c2ccc(C)cc2)c1C#N
IC50 [1]: 7.85 µM
IC50 (MCF7): 19.7 µM
IC50 (MGC-803): 7.96 µM
IC50 [2]: 8.58 µM
IC50 [3]: > 64 µM

CC(C)c1ccc(-c2nc(SCc3cn(CC(=O)NC(=O)Nc4ccccn4)nn3)nc(Nc3cccc(C(F)(F)F)c3)c2C#N)cc1
IC50 [1]: 24.2 µM
IC50 (MCF7): 8.62 µM
IC50 (MGC-803): > 64 µM
IC50 [2]: 1.7 µM

Cc1ccccc1Nc1nc(SCc2cn(CC(=O)NC(=O)Nc3ccccn3)nn2)nc(-c2ccc(C(C)C)cc2)c1C#N
IC50 [1]: 7.23 µM
IC50 (MCF7): > 64 µM
IC50 (MGC-803): 19 µM
IC50 [2]: 18.6 µM

Cc1ccc(-c2nc(SCc3cn(CC(=O)NC(=O)Nc4ccccn4)nn3)nc(Nc3cccc(C(F)(F)F)c3)c2C#N)cc1
IC50 [1]: 32.3 µM
IC50 (MCF7): 6.12 µM
IC50 (MGC-803): 7.58 µM
IC50 [2]: 9.58 µM

CC(C)c1ccc(-c2nc(SCc3cn(CC(=O)NC(=O)Nc4ccccn4)nn3)nc(Nc3ccccc3)c2C#N)cc1
IC50 [1]: > 64 µM
IC50 (MCF7): > 64 µM
IC50 (MGC-803): 15.8 µM
IC50 [2]: 14.3 µM

COc1cc(-c2nc(SCc3cn(CC(=O)NC(=O)Nc4ccccn4)nn3)nc(Nc3cccc(C(F)(F)F)c3)c2C#N)cc(OC)c1OC
IC50 [1]: > 64 µM
IC50 (MCF7): 8.14 µM
IC50 (MGC-803): 8.21 µM
IC50 [2]: 24.4 µM
IC50 [3]: > 64 µM

Cc1ccc(Nc2nc(SCc3cn(CC(=O)NC(=O)Nc4ccccn4)nn3)nc(-c3ccc(Br)cc3)c2C#N)cc1
IC50 [1]: 7.92 µM
IC50 (MCF7): 14.4 µM
IC50 (MGC-803): 13.9 µM
IC50 [2]: 8.16 µM

Cc1ccc(Nc2nc(SCc3cn(CC(=O)NC(=O)Nc4ccccn4)nn3)nc(-c3ccccc3)c2C#N)cc1
IC50 [1]: 24.6 µM
IC50 (MCF7): > 64 µM
IC50 (MGC-803): 7.87 µM
IC50 [2]: 3.3 µM

Cc1ccc(Nc2nc(SCc3cn(CC(=O)NC(=O)Nc4ccccn4)nn3)nc(-c3ccc(Cl)cc3)c2C#N)cc1
IC50 [1]: 13.1 µM
IC50 (MCF7): 27 µM
IC50 (MGC-803): 24 µM
IC50 [2]: 1.32 µM

CC(C)c1ccc(-c2nc(SCc3cn(CC(=O)NC(=O)Nc4ccccn4)nn3)nc(Nc3ccccc3O)c2C#N)cc1
IC50 [1]: 7.38 µM
IC50 (MCF7): > 64 µM
IC50 (MGC-803): 16.4 µM
IC50 [2]: 16.1 µM

CC(C)c1ccc(Nc2nc(SCc3cn(CC(=O)NC(=O)Nc4ccccn4)nn3)nc(-c3ccc(C(C)C)cc3)c2C#N)cc1
IC50 [1]: 2.49 µM
IC50 (MCF7): 28.6 µM
IC50 (MGC-803): 15.8 µM
IC50 [2]: 4.38 µM

CC(C)c1ccc(-c2nc(SCc3cn(CC(=O)NC(=O)Nc4ccccn4)nn3)nc(Nc3cccc([N+](=O)[O-])c3)c2C#N)cc1
IC50 [1]: 31.3 µM
IC50 (MCF7): 25.9 µM
IC50 (MGC-803): > 64 µM
IC50 [2]: 26.4 µM

COc1ccccc1Nc1nc(SCc2cn(CC(=O)NC(=O)Nc3ccccn3)nn2)nc(-c2ccc(C(C)C)cc2)c1C#N
IC50 [1]: 8.96 µM
IC50 (MCF7): 19.3 µM
IC50 (MGC-803): > 64 µM
IC50 [2]: 34.6 µM

CC(C)c1ccc(-c2nc(SCc3cn(CC(=O)NC(=O)Nc4ccccn4)nn3)nc(Nc3ccccc3Cl)c2C#N)cc1
IC50 [1]: 23.4 µM
IC50 (MCF7): 43.7 µM
IC50 (MGC-803): 19.7 µM
IC50 [2]: 6.79 µM

CC(C)c1ccc(Nc2nc(SCc3cn(CC(=O)NC(=O)Nc4ccccn4)nn3)nc(-c3ccc(Br)cc3)c2C#N)cc1
IC50 [1]: > 64 µM
IC50 (MCF7): 30.6 µM
IC50 (MGC-803): 15.6 µM
IC50 [2]: 0.042 µM
IC50 [3]: > 64 µM

Cc1ccc(-c2nc(SCc3cn(CC(=O)NC(=O)Nc4ccccn4)nn3)nc(Nc3ccc(C(C)C)cc3)c2C#N)cc1
IC50 [1]: 7.45 µM
IC50 (MCF7): > 64 µM
IC50 (MGC-803): 19.3 µM
IC50 [2]: 0.035 µM
IC50 [3]: > 64 µM

O=c1[nH]cc(F)c(=O)[nH]1 [FLUOROURACIL]
IC50 [1]: 11.6 µM
IC50 (MCF7): 9.12 µM
IC50 (MGC-803): 8.43 µM
IC50 [2]: 1.43 µM

COc1cc(-c2nc(SCc3cn(CC(=O)NC(=O)Nc4ccccn4)nn3)nc(Nc3cccc(Cl)c3)c2C#N)cc(OC)c1OC
IC50 [1]: > 64 µM
IC50 (MCF7): 24 µM
IC50 (MGC-803): 15.4 µM
IC50 [2]: 1.42 µM

Cc1ccc(Nc2nc(SCc3cn(CC(=O)NC(=O)Nc4ccccn4)nn3)nc(-c3ccc(C(C)C)cc3)c2C#N)cc1
IC50 [1]: 6.7 µM
IC50 (MCF7): > 64 µM
IC50 (MGC-803): 3.36 µM
IC50 [2]: 3.06 µM
IC50 [3]: > 64 µM

CC(C)c1ccc(-c2nc(SCc3cn(CC(=O)NC(=O)Nc4ccccn4)nn3)nc(Nc3ccccc3F)c2C#N)cc1
IC50 [1]: 15.5 µM
IC50 (MCF7): > 64 µM
IC50 (MGC-803): > 64 µM
IC50 [2]: 8.38 µM

Cc1cccc(Nc2nc(SCc3cn(CC(=O)NC(=O)Nc4ccccn4)nn3)nc(-c3ccc(C(C)C)cc3)c2C#N)c1
IC50 [1]: 7.32 µM
IC50 (MCF7): > 64 µM
IC50 (MGC-803): 25.3 µM
IC50 [2]: 1.65 µM

Cc1ccc(Nc2nc(SCc3cn(CC(=O)NC(=O)Nc4ccccn4)nn3)nc(-c3ccc(C)cc3)c2C#N)cc1
IC50 [1]: > 64 µM
IC50 (MCF7): 39.6 µM
IC50 (MGC-803): 9.89 µM
IC50 [2]: 1.01 µM
